Experiment: Displacement of thioflavin-T from amyloid beta (1 to 40) aggregates by thioflavin-T fluorescent dye assay
COc1ccc2nc(/N=N/c3ccc(N(C)C)cc3)sc2c1 showed an IC50 of 3.2 µM.
Compound CCCC[n+]1c(/C=C/c2ccc(N(C)C)cc2)sc2ccccc21 has an IC50 of 0.16 µM.
In the case of CCCCCCC[n+]1c(/C=C/c2ccc(N(C)C)cc2)sc2ccccc21, the IC50 is reported as 0.093 µM.
In the case of CN(C)c1ccc(/C=C/c2sc3ccccc3[n+]2Cc2ccccc2)cc1, the IC50 is reported as 0.11 µM.
CN(C)c1ccc(/C=C/c2sc3ccc(F)cc3[n+]2C)cc1 gave an IC50 of 1 µM.
Compound Cc1ccc2sc(/C=C/c3ccc(N(C)C)cc3)[n+](C)c2c1 has an IC50 of 0.4 µM.
For Cc1ccc2c(c1)sc(/C=C/c1ccc(N(C)C)cc1)[n+]2C, the IC50 was 0.18 µM.
Compound COc1ccc2c(c1)sc(/C=C/c1ccc(N(C)C)cc1)[n+]2C has an IC50 of 0.3 µM.
In the case of CN(C)c1ccc(/C=C/c2sc3cc([N+](=O)[O-])ccc3[n+]2C)cc1, the IC50 is reported as 1 µM.
Work on CN(C)c1ccc(/N=N/c2nc3ccccc3s2)cc1 yielded an IC50 of 22 µM.
COc1ccc2c(c1)sc(/N=N/c1ccc(N(C)C)cc1)[n+]2C gave an IC50 of 0.41 µM.
In the case of CN(C)c1ccc(/N=N/c2sc3ccccc3[n+]2C)cc1, the IC50 is reported as 1.3 µM.
In the case of CN(C)c1ccc(/C=C/c2sc3ccc(F)cc3[n+]2Cc2ccccc2)cc1, the IC50 is reported as 0.17 µM.
Cc1ccc2c(c1)sc(/C=C/c1ccc(N(C)C)cc1)[n+]2Cc1ccccc1 gave an IC50 of 0.13 µM.
Compound CCCCCCC[n+]1c(/C=C/c2ccc(N(C)C)cc2)sc2cc(OC)ccc21 has an IC50 of 0.14 µM.
CN(C)c1ccc(/C=C/c2sc3ccccc3[n+]2Cc2ccc(F)cc2)cc1 showed an IC50 of 0.12 µM.
CN(C)c1ccc(/C=C/c2sc3ccccc3[n+]2Cc2ccc(-c3ccccc3)cc2)cc1 showed an IC50 of 0.24 µM.
CN(C)c1ccc(/C=C/c2sc3ccccc3[n+]2Cc2ccccc2-c2ccccc2)cc1 showed an IC50 of 0.1 µM.
For CN(C)c1ccc(/C=C/c2sc3ccccc3[n+]2Cc2cccc(OC(=O)c3ccccc3)c2)cc1, the IC50 was 0.23 µM.
Compound CN(C)c1ccc(/C=C/c2sc3ccccc3[n+]2Cc2cccc(Oc3ccccc3)c2)cc1 has an IC50 of 0.12 µM.
CN(C)c1ccc(/C=C/c2sc3ccccc3[n+]2CCCc2ccccc2)cc1 showed an IC50 of 0.2 µM.
Work on CN(C)c1ccc(/C=C/c2sc3ccccc3[n+]2C/C=C/c2ccccc2)cc1 yielded an IC50 of 0.1 µM.
CN(C)c1ccc(/C=C/c2sc3ccccc3[n+]2CCCC(c2ccccc2)c2ccccc2)cc1 gave an IC50 of 0.46 µM.
CN(C)c1ccc(/C=C/c2sc3ccccc3[n+]2CCCOCc2ccccc2)cc1 gave an IC50 of 0.14 µM.
CN(C)c1ccc(/C=C/c2sc3ccccc3[n+]2CCCCOc2ccccc2)cc1 showed an IC50 of 0.17 µM.
CN(C)c1ccc(/C=C/c2sc3ccccc3[n+]2CCCCCc2ccccc2)cc1 gave an IC50 of 0.17 µM.
With CN(C)c1ccc(/C=C/c2sc3ccccc3[n+]2CCCCCOc2ccccc2)cc1 the IC50 was 0.17 µM.
CN(C)c1ccc(/C=C/c2sc3ccccc3[n+]2CCCC2CCCCC2)cc1 showed an IC50 of 0.12 µM.
Work on CCCCCCC[n+]1c(/C=C/c2ccc(N(CC)CC)cc2)sc2ccccc21 yielded an IC50 of 0.14 µM.
CCCCCCC[n+]1c(/C=C/c2ccc(N(CCCC)CCCC)cc2)sc2ccccc21 gave an IC50 of 0.6 µM.
In the case of CCCCCCC[n+]1c(/C=C/c2ccc(-n3cccc3)cc2)sc2ccccc21, the IC50 is reported as 0.16 µM.
In the case of CN(C)c1ccc(/C=C/c2sc3ccc(Cc4ccccc4)c(Cc4ccccc4)c3[n+]2C)cc1, the IC50 is reported as 0.21 µM.
With CN(C)c1ccc(/C=C/c2nc3cc(Cl)ccc3s2)cc1 the IC50 was > 100 µM.
In the case of CN(C)c1ccc(/C=C/c2nc3ccc(N(C)C)cc3s2)cc1, the IC50 is reported as > 100 µM.
CN(C)c1ccc(/C=C/c2sc3ccc(Cl)cc3[n+]2C)cc1 showed an IC50 of 0.43 µM.
Compound CN(C)c1ccc(/C=C/c2sc3cc(Cc4ccccc4)c(Cc4ccccc4)cc3[n+]2C)cc1 has an IC50 of 0.12 µM.
For CN(C)c1ccc(/C=C/c2sc3c(Cc4ccccc4)c(Cc4ccccc4)ccc3[n+]2C)cc1, the IC50 was 0.21 µM.
For CN(C)c1ccc(/C=C/c2sc3ccccc3[n+]2Cc2ccc3ccccc3c2)cc1, the IC50 was 0.12 µM.
Work on CCCCCCC[n+]1c(/C=C/c2ccc(N(C)C)c3ccccc23)sc2ccccc21 yielded an IC50 of 0.16 µM.
COc1ccc2c(c1)sc(/C=C/c1ccc(N(C)C)c3ccccc13)[n+]2C showed an IC50 of 0.43 µM.
With Nc1ccc(/N=N/c2nc3ccccc3s2)c2ccccc12 the IC50 was 0.12 µM.
COc1ccc2nc(/N=N/c3ccc(N(C)C)c4ccccc34)sc2c1 showed an IC50 of 2.5 µM.
CN(C)c1ccc(/C=C/c2sc3ccccc3[n+]2C)cc1 showed an IC50 of 1 µM.
CC[n+]1c(/C=C/c2ccc(N(C)C)cc2)sc2ccccc21 showed an IC50 of 0.4 µM.
For CN(C)c1ccc(/C=C/c2nc3ccccc3s2)cc1, the IC50 was > 100 µM.
